# Assay results from US20090136470A1, “REGULATORY T CELLS AND METHODS OF MAKING AND USING SAME” (priority 2007, published 2009).
# System: CD4^+T cells from small intestine lamina propria and spleen
# Test: Oral Listeria monocytogenes infection (and naïve mice) treated with RA or LE540: IL-17^+ and Foxp3^+ CD4 T cells
# Type: in vivo, mouse
# Excerpt: Listeria monocytogenes (strain WT LMOVA) was used. Mice were orally infected (gavage) with 5×10^8 CFU of L. monocytogenes. Mice received i.p. injections of vehicle, RA or LE540 on the same day and 2 days after infection. Mice were sacrificed 5 days post-infection for analysis.
# Every second day, in a interval of two weeks, naïve mice received gavage of either vehicle, RA or LE540.
# Liver lymphocytes were isolated using 37.5% isotonic Percoll (GE Healthcare, USA), as previously described [Y. Kinjo et al, Nat Immunol 7, 978 (2006)]. Intestinal lymphocytes were isolated and prepared as previously described [Aranda et al., J Immunol 158, 3464 (1997)]. Briefly, small and large intestines were removed and placed in chilled HBSS media containing 5% FCS. The intestines were carefully cleaned from the mesentery and flushed of fecal content. Intestines were opened longitudinally and then cut into 1 cm pieces. The intestinal tissue was transferred to a 250-ml Erlenmeyer flasks containing 25 ml of preheated HBSS complemented with 2% FCS and 1 mM DTT (Sigma, USA) and shaken at 200 rpm for 40 min at 37° C. The tissue suspension was passed through a stainless steel sieve into 50-ml conical tubes and the cells were pelleted by centrifugation at 1200 rpm for 10 min at 4° C. The cell pellet was resuspended in complete HBSS, layered over a discontinuous 40/70% Percoll gradient, and centrifuged at 2000 rpm for 30 min. Cells from the 40/70% interface were collected, washed and resuspended in complete RPMI media. These purified cells constituted the intraepithelial lymphocyte (IEL) population. To isolate the lamina propria lymphocytes (LPL), the remaining intestinal tissue in the stainless steel sieve was minced and transferred to conical tubes. The minced pieces were resuspended in 20 ml of complete RPMI containing 1 mg/ml of collagenase (Sigma, USA) and shaken at 200 rpm for 40 min at 37° C. The tissue suspension was collected and passed through a 70 μm cell strainer and the cells were pelleted by centrifugation at 1200 rpm. The cells were then resuspended and layered onto a 40/70% Percoll gradient, centrifugated and processed as described above for the IEL preparation.
# To block non-specific staining, the 2.4G2 anti-CD16/32 antibody was added. […] For intracellular cytokine staining, cells obtained from in vitro cultures or isolated IELs were incubated for 4-5 hours with 50 ng/ml PMA, 750 ng/ml Ionomycin (both Sigma, USA) and 10 μg/ml Brefeldin A (Invitrogen, USA) in a tissue culture incubator at 37° C.
# For Foxp3 staining, no stimulation with PMA/Ionomycin was performed, with the exceptions of FIGS. 8B and 9A. In these cases, the time of incubation with PMA/Ion was reduced to 3.5 hours. Intracellular Foxp3 staining was performed as per the eBioscience's Foxp3-staining kit protocol.
smiles,measurement,setting,value
"CC1=C(/C=C/C(C)=C/C=C/C(C)=C/C(=O)O)C(C)(C)CCC1 [RA, All-trans retinoic acid]","Th-17 mucosal T cells (IL-17 staining of CD4^+T cells, small intestine lamina propria)","5 days after oral L. monocytogenes infection, i.p. days 0 and 2, RA 300 μg/mouse, LE540 100 μg/mouse",measurable reduction
same,differentiation / number of mucosal Foxp3^+Treg cells (small intestine lamina propria),"Lm challenged mice, 5 days after oral infection",not found to measurably enhance
same,spleen Foxp3^+CD4 cells,Lm infected mice (2 i.p. injections) and naïve mice (2-week gavage),No effect
